# Results as given in US10040781B2, “Tank-binding kinase inhibitor compounds” (Gilead Sciences, Inc., priority 2014, dated 2018).
# Read-outs that look alike come from different tables or passages of the source.
# Key:
# hJAK2 = hJAK2 (Homo sapiens (Human), UniProt O60674); assay: hJAK2 LANCE TR-FRET enzymatic assay; assay type: biochemical; conditions: read-out: JAK2 IC50
# TBK1 = TBK1 (Homo sapiens (Human), UniProt Q9UHD2); assay: TBK1 TR-FRET enzymatic assay;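 also: phosphorylation of a biotinylated Ser/Thr peptide by purified full-length recombinant TBK1, read by TR-FRET after 240 min at 25 °C, IC50 is the geometric mean of at least four runs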
# Sequence of TBK1 (Q9UHD2 whole entry): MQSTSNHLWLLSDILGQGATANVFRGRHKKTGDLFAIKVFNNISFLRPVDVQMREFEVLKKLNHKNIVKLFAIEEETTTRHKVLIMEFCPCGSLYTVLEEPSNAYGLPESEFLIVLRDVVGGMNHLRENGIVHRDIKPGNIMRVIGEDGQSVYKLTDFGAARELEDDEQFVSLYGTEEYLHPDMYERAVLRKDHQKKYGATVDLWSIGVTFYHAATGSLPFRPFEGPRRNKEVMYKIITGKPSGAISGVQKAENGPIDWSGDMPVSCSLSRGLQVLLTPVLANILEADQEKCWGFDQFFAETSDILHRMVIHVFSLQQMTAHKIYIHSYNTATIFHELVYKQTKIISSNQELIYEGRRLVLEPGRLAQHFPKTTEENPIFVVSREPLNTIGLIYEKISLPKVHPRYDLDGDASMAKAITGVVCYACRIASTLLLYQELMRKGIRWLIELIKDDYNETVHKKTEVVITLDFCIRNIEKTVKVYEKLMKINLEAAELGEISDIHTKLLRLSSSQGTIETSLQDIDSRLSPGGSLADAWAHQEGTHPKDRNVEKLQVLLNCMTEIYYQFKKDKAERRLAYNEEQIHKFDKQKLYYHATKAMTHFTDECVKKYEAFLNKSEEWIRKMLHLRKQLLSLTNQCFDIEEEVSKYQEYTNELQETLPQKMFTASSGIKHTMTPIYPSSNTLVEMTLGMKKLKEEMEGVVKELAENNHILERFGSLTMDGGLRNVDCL
# IKKε = IKKε (Homo sapiens (Human), UniProt Q14164); assay: IKKε TR-FRET enzymatic assay; assay type: biochemical; conditions: read-out: IKKe IC50
# Sequence of IKKε (Q14164 whole entry): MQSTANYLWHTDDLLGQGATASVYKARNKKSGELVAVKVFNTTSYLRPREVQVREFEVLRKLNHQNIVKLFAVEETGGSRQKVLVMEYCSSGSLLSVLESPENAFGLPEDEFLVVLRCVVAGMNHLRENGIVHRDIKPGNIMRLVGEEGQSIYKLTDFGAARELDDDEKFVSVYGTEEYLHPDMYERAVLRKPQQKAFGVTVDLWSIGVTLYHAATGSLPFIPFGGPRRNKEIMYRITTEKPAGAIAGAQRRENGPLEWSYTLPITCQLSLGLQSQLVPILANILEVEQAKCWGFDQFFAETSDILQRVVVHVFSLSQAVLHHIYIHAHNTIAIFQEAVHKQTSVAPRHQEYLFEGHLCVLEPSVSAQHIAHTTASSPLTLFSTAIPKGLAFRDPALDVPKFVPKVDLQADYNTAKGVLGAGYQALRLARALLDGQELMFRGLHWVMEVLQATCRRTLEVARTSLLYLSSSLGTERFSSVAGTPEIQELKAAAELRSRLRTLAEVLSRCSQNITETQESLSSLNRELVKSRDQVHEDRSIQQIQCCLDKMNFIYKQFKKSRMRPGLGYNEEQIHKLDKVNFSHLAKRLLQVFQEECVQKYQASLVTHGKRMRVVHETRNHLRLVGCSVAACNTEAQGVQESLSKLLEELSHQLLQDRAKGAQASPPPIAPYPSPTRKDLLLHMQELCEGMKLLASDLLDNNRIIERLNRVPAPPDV
# [1] = TR-FRET, 2×Km ATP, geometric mean of minimum four determinations
# Sequence of hJAK2 (O60674 whole entry): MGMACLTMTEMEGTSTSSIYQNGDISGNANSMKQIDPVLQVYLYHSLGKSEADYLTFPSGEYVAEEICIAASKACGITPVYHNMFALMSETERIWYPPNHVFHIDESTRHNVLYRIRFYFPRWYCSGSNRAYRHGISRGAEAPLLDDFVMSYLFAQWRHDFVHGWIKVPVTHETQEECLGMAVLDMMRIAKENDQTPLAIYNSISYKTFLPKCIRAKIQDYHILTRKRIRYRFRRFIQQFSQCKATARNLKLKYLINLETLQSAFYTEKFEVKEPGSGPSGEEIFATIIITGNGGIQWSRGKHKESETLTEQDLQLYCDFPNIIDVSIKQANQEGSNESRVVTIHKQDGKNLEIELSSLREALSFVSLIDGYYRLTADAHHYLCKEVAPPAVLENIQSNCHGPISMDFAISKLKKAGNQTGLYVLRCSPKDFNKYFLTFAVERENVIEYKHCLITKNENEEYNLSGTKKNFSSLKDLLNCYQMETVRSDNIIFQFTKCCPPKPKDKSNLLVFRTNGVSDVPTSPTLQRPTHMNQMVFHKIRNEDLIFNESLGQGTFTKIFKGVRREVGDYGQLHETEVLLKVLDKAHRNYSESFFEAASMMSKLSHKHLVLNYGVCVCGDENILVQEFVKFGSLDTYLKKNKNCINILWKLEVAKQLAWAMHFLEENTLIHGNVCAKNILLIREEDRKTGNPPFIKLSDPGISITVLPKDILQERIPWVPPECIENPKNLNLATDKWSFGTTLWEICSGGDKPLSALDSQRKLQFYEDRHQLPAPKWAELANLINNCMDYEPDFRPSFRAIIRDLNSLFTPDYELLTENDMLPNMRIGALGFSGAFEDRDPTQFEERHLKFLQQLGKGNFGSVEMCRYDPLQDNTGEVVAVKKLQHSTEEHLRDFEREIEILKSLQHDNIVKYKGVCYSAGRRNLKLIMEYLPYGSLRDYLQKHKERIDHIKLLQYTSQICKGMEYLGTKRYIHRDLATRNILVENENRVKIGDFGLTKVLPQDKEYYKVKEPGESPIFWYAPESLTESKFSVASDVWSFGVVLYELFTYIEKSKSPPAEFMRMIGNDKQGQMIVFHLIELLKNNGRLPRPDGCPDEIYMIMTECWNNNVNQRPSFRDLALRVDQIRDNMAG
IC50 (hJAK2) [µM],IC50 (TBK1) [µM],IC50 (IKKε) [µM],IC50 (IKKε; [1]) [µM],Compound
0.242,0.003,0.023,,"N#Cc1cc(-c2ncnc(Nc3ccc(N4CCN(C5COC5)CC4)cc3)n2)ccc1OC1CCNCC1(F)F (racemic) [Example 148, 2-((3,3-difluoropiperidin-4-yl)oxy)-5-(4-((4-(4-(oxetan-3-yl)piperazin-1-yl)phenyl)amino)-1,3,5-triazin-2-yl)benzonitrile]"
0.154,0.024,0.006,,"N#Cc1cc(-c2ncnc(Nc3cnn(C4CCNCC4)c3)n2)ccc1O[C@H]1CCCC[C@H]1F (racemic) [Example 295, rac-2-(((1S,2R)-2-fluorocyclohexyl)oxy)-5-(4-((1-(piperidin-4-yl)-1H-pyrazol-4-yl)amino)-1,3,5-triazin-2-yl)benzonitrile]"
0.065,0.004,,0.002,"C[C@H]1CN(C(=O)CO)CC(F)(F)[C@H]1Oc1ccc(-c2ncnc(Nc3ccc(N4CCN(C5COC5)CC4)cc3)n2)cc1C#N (relative stereo) [Example 430, Cis 2-((3,3-difluoro-1-(2-hydroxyacetyl)-5-methylpiperidin-4-yl)oxy)-5-(4-((4-(4-(oxetan-3-yl)piperazin-1-yl)phenyl)amino)-1,3,5-triazin-2-yl)benzonitrile]"
0.14,0.005,,0.003,"C[C@@H]1CN(C(=O)CO)CC(F)(F)[C@H]1Oc1ccc(-c2ncnc(Nc3ccc(N4CCN(C5COC5)CC4)cc3)n2)cc1C#N (relative stereo) [Example 432, trans-2-((3,3-difluoro-1-(2-hydroxyacetyl)-5-methylpiperidin-4-yl)oxy)-5-(4-((4-(4-(oxetan-3-yl)piperazin-1-yl)phenyl)amino)-1,3,5-triazin-2-yl)benzonitrile]"
0.015,0.006,,0.008,"N#Cc1cc(-c2ncnc(Nc3ccc(N4CCN(C5COC5)CC4)cc3)n2)ccc1O[C@H]1CCN(C(=O)CO)C[C@@H]1C(F)(F)F (relative stereo) [Example 438, Trans-2-((1-(2-hydroxyacetyl)-3-(trifluoromethyl)piperidin-4-yl)oxy)-5-(4-((4-(4-(oxetan-3-yl)piperazin-1-yl)phenyl)amino)-1,3,5-triazin-2-yl)benzonitrile]"
0.021,0.009,,0.012,"N#Cc1cc(-c2ncnc(Nc3ccc(N4CCN(C5COC5)CC4)cc3)n2)ccc1O[C@H]1CCN(C(=O)CO)C[C@H]1C(F)(F)F (relative stereo) [Example 439, cis-2-((1-(2-hydroxyacetyl)-3-(trifluoromethyl)piperidin-4-yl)oxy)-5-(4-((4-(4-(oxetan-3-yl)piperazin-1-yl)phenyl)amino)-1,3,5-triazin-2-yl)benzonitrile]"
0.33,0.049,0.229,,"N#Cc1cc(-c2ncnc(Nc3ccc(N4CCN(C5COC5)CC4)cc3)n2)ccc1O[C@H]1CCNCC1(F)F (single isomer, unassigned) [Example 149]"
0.27,0.002,0.014,,"N#Cc1cc(-c2ncnc(Nc3ccc(N4CCN(C5COC5)CC4)cc3)n2)ccc1O[C@@H]1CCNCC1(F)F (single isomer, unassigned) [Example 150]"
0.198,,0.001,,"C[C@H](O)C(=O)N1CC[C@H](Oc2ccc(-c3ncnc(Nc4ccc(N5CCN(C6COC6)CC5)cc4)n3)cc2C#N)C(F)(F)C1 (single isomer, unassigned) [Example 155]"
0.196,0.016,0.023,,"C[C@H](O)C(=O)N1CC[C@@H](Oc2ccc(-c3ncnc(Nc4ccc(N5CCN(C6COC6)CC5)cc4)n3)cc2C#N)C(F)(F)C1 (single isomer, unassigned) [Example 156]"
0.171,0.001,0.003,,"C[C@@H](O)C(=O)N1CC[C@H](Oc2ccc(-c3ncnc(Nc4ccc(N5CCN(C6COC6)CC5)cc4)n3)cc2C#N)C(F)(F)C1 (single isomer, unassigned) [Example 158]"
0.207,0.079,0.209,,"C[C@@H](O)C(=O)N1CC[C@@H](Oc2ccc(-c3ncnc(Nc4ccc(N5CCN(C6COC6)CC5)cc4)n3)cc2C#N)C(F)(F)C1 (single isomer, unassigned) [Example 159]"
0.049,0.002,0.001,,"CC1(C)CN(C(=O)CO)C[C@H](F)[C@@H]1Oc1ccc(-c2ncnc(Nc3ccc(N4CCN(C5COC5)CC4)cc3)n2)cc1C#N (single isomer, unassigned) [Example 178]"
0.234,0.008,0.013,,"CC1(C)CN(C(=O)CO)C[C@@H](F)[C@H]1Oc1ccc(-c2ncnc(Nc3ccc(N4CCN(C5COC5)CC4)cc3)n2)cc1C#N (single isomer, unassigned) [Example 179]"
0.09,0.002,0.01,,"N#Cc1cc(-c2ncnc(Nc3ccc(N4CCN(C5COC5)CC4)cc3)n2)ccc1O[C@H]1CN(C(=O)CO)CC1(F)F (single isomer, unassigned) [Example 195]"
0.118,0.114,0.391,,"N#Cc1cc(-c2ncnc(Nc3ccc(N4CCN(C5COC5)CC4)cc3)n2)ccc1O[C@@H]1CN(C(=O)CO)CC1(F)F (single isomer, unassigned) [Example 196]"
0.865,0.02,,0.042,"CC(N)C(=O)N1CC[C@H](Oc2ccc(-c3ncnc(Nc4ccc(N5CCN(C6COC6)CC5)cc4)n3)cc2C#N)[C@H](F)C1 (stereo in doubt) [Example 434, 2-(((3R,4S)-1-((R)-2-aminopropanoyl)-3-fluoropiperidin-4-yl)oxy)-5-(4-((4-(4-(oxetan-3-yl)piperazin-1-yl)phenyl)amino)-1,3,5-triazin-2-yl)benzonitrile]"
0.36,0.002,0.006,,"N#Cc1cc(-c2ncnc(Nc3ccc(N4CCS(=O)(=O)CC4)cc3)n2)ccc1OC1CCOCC1 [Example 1, 5-(4-((4-(1,1-dioxidothiomorpholino)phenyl)amino)-1,3,5-triazin-2-yl)-2-((tetrahydro-2H-pyran-4-yl)oxy)benzonitrile]"
≥ 1,,≥ 1,,"N#Cc1cc(-c2ncnc(Nc3ccc(N4CCN(C5COC5)CC4)cc3)n2)ccc1O[C@H]1CCN(C(=O)[C@@H]2CCCN2)C[C@H]1F [Example 133, 2-(((3R,4S)-3-fluoro-1-((S)-pyrrolidine-2-carbonyl)piperidin-4-yl)oxy)-5-(4-((4-(4-(oxetan-3-yl)piperazin-1-yl)phenyl)amino)-1,3,5-triazin-2-yl)benzonitrile]"
0.156,,,0.099,"N#Cc1cc(-c2ncnc(Nc3ccc(N4CCN(C5COC5)CC4)cc3)n2)ccc1O[C@H]1CCN(Cc2nc(=O)[nH][nH]2)C[C@H]1F [Example 436, 2-(((3R,4S)-3-fluoro-1-((5-oxo-2,5-dihydro-1H-1,2,4-triazol-3-yl)methyl)piperidin-4-yl)oxy)-5-(4-((4-(4-(oxetan-3-yl)piperazin-1-yl)phenyl)amino)-1,3,5-triazin-2-yl)benzonitrile]"
,0.004,,0.002,"N#Cc1cc(-c2ncnc(Nc3ccc(N4CCN(C5COC5)CC4)cc3)n2)ccc1O[C@H]1CCN(C(=O)c2nc(=O)[nH][nH]2)C[C@H]1F [Example 437, 2-(((3R,4S)-3-fluoro-1-(5-oxo-2,5-dihydro-1H-1,2,4-triazole-3-carbonyl)piperidin-4-yl)oxy)-5-(4-((4-(4-(oxetan-3-yl)piperazin-1-yl)phenyl)amino)-1,3,5-triazin-2-yl)benzonitrile]"
,0.004,,0.007,N#Cc1cc(-c2ncnc(Nc3cnn(C(F)F)c3)n2)ccc1O[C@H]1CCN(C(=O)[C@@H](O)CO)C[C@H]1F [Example 456]
,0.013,,0.02,"C[C@H](O)C(=O)N1CC[C@H](Oc2ccc(-c3ncnc(Nc4cnn(C(F)F)c4)n3)cc2C#N)[C@H](F)C1 [Example 457, 5-(4-((1-(difluoromethyl)-1H-pyrazol-4-yl)amino)-1,3,5-triazin-2-yl)-2-(((3R,4S)-3-fluoro-1-((S)-2-hydroxypropanoyl)piperidin-4-yl)oxy)benzonitrile]"
,0.004,,0.005,"N#Cc1cc(-c2ncnc(Nc3ccc(N4CCN5CCOC[C@H]5C4)cc3)n2)ccc1O[C@H]1CCN(C(=O)[C@@H]2CCC(=O)N2)C[C@H]1F [Example 466, 2-(((3R,4S)-3-fluoro-1-((S)-5-oxopyrrolidine-2-carbonyl)piperidin-4-yl)oxy)-5-(4-((4-((R)-hexahydropyrazino[2,1-c][1,4]oxazin-8(1H)-yl)phenyl)amino)-1,3,5-triazin-2-yl)benzonitrile]"
,0.003,,0.002,"Cc1cc(Nc2ncnc(-c3ccc(O[C@@H]4CCC(=O)NC4)c(C#N)c3)n2)ccc1N1CCN(C2COC2)CC1 [Example 532, (R)-5-(4-((3-methyl-4-(4-(oxetan-3-yl)piperazin-1-yl)phenyl)amino)-1,3,5-triazin-2-yl)-2-((6-oxopiperidin-3-yl)oxy)benzonitrile]"
,0.002,,0.001,"COc1cc(Nc2ncnc(-c3ccc(O[C@H]4CCN(C(=O)[C@@H](O)CO)CC4(F)F)c(C#N)c3)n2)ccc1N1CCN(C2COC2)CC1 [Example 577, 2-(((S)-1-((S)-2,3-dihydroxypropanoyl)-3,3-difluoropiperidin-4-yl)oxy)-5-(4-((3-methoxy-4-(4-(oxetan-3-yl)piperazin-1-yl)phenyl)amino)-1,3,5-triazin-2-yl)benzonitrile]"
,0.012,0.02,,"N#Cc1cc(-c2ncnc(Nc3ccc(N4CCN(C5COC5)CC4)cc3)n2)ccc1OCC1(C(N)=O)CC1 [Example 605, 1-((2-cyano-4-(4-((4-(4-(oxetan-3-yl)piperazin-1-yl)phenyl)amino)-1,3,5-triazin-2-yl)phenoxy)methyl)-cyclopropanecarbox-amide]"
